Laboratory results taken from patent publication US11951100B2, “Formulations of RBP4 inhibitors and methods of use” (Belite Bio, LLC, priority 2019, dated 2024).
≈ marks a conversion by molar mass, not a printed value. Where “and” joins values, the source holds several entries; their conditions need not be identical. Identical values can stand only once.

Key:
Format in all cases: physicochemical
[1] = Melt-quench modulated DSC of Compound 1
Description: A sample of Compound 1 was analyzed by Modulated Differential Scanning Calorimetry using a TA Discovery DSC2500 with RCS90 chiller according to standard instrument procedures provided by manufacturer. Parameters used for the analysis are shown below in Table 4. Two replicates of the experiment were run with reproducible results. The resulting thermogram, shown in FIG. 10C, indicates a glass transition temperature (Tg) of about 93° C., a crystallization temperature (Tc) of about 136° C., and a Tm/Tg ratio of 1.37. The Tm/Tg ratio of 1.37 is indicative of moderate physical stability. Without being bound by theory, the Te observed quickly after Compound 1 entering a rubbery state was indicative of a propensity to crystallize. [table]

[2] = Log D7.4, shake-flask partitioning; conditions: pH 7.4, shake-flask (Pion, Inc.)
Description: Several biopharmaceutically relevant parameters of the API (Compound 1) were obtained for the API. […] Based on these two biopharmaceutical parameters, this compound is possibly a BCS Class II. Solubility enhancement is critical for bioavailability of the API for dosing. Therefore, to overcome the limitation from solubility, several experiments were conducted to assess various solubility enhancement approaches utilized in formulation development

[3] = Equilibrium solubility by HPLC, Form C, ambient temperature; conditions: for solubility: thermodynamic from solid
Description: […] (as a part of feasibility assessment of liquid dosage form in formulation development and dissolution method development), a number of […] […] The equilibrated suspensions were isolated by centrifuge and the filtrates were injected into HPLC to determine equilibrium solubility of the API in each solvent system.

[4] = Saturated solubility at 80° C., visually estimated; conditions: Capmul MCM
[5] = Solvent shift assay in FaSSIF
Description: A solvent shift assay was performed in order to assess the effect of polymer excipients in improving supersaturation and sustainment in biorelevant media. Compound 1 was dissolved in DMSO to generate concentrated dissolved stock solution at 25 mg/mL. Stock API solution was then added to Fasted State Simulated Intestinal Fluid (FaSSIF) solution or FaSSIF solution containing predissolved polymer excipients to final concentration of compound 1 at 0.5 mg/mL. Ratios of Compound 1:polymer excipient in the final solution were either 20:80 or 40:60 (w/w). Samples were analyzed by HPLC to assess dynamic solubility of Compound 1 at various time points over a one hour period.

[6] = Estimated solubility by solvent aliquot addition, visual inspection; conditions: thermodynamic from solid
Description: Solubilities of Compound 1 in a few solvents were estimated. The experiments were carried out by adding the test solvent in aliquots to weighed portions of solid. Whether dissolution had occurred was judged by visual inspection after addition of each solvent aliquot. Solubility numbers were calculated by dividing the total amount of solvent used to dissolve the sample by the weight of the sample. The actual solubilities may be greater than the numbers calculated because of the use of solvent aliquots that were too large or because of slow dissolution rates. […] The solubility number is expressed as “greater than or equal to” if dissolution occurred on addition of the first solvent aliquot.

[7] = Amorphous form: mDSC glass transition and TGA; conditions: preliminary TGA data
Description: To assess the feasibility of solid dispersion approach in formulation development, the glass transition temperature of the material was determined by modulated differential scanning calorimetry (mDSC). […] Therefore, as preparing an in-situ amorphous material in DSC pan, the end temperature should not ramp beyond 260° C. The amorphous samples were generated by heating the raw APIs from 25 to 250° C., followed by a rapid cooling to −60° C. The glass transition temperature (Tg) was measured by a slow heating of the generated amorphous samples from −60° C. to 250° C. The Tg for in-situ generated amorphous material from C and Form A was 93° C. and 97° C., respectively. The discrepancy in the two Tg values may simply due to the variation of water content in the samples or chemical purity.

[8] = DSC of crystalline Compound 1; conditions: ramp 10.0° C./min, 35° C.-275° C.
Description: A sample of Compound 1 was analyzed by Differential Scanning Calorimetry using a TA Discovery DSC2500 with RCS90 chiller according to standard instrument procedures provided by manufacturer. Parameters used for the analysis are shown below in Table 3. Two replicates of the experiment were run with reproducible results. The resulting thermogram, shown in FIG. 10B, indicated a melting temperature (Tm) of Compound 1 of about 229° C. and no degradation up to 275° C.

Tm/Tg ratio ([1]; indicative of moderate physical stability): 1.37 | crystallization temperature (Tc) ([1]; melt-quenched Compound 1): about 136 °C | glass transition temperature (Tg) ([1]; melt-quenched Compound 1): about 93 °C | logD [2]: 3.23 | solubility ([3]; Canola Oil, oil or lipid, Canola Oil, read-out: Solubility by HPLC): 31 µg/mL (≈ 67.9 µM) | solubility ([3]; Capmul MCM, EP, oil or lipid, Capmul MCM, EP, read-out: Solubility by HPLC): 3900 µg/mL (≈ 8540 µM) | solubility ([3]; Capmul MCM, NF, oil or lipid, Capmul MCM, NF, read-out: Solubility by HPLC): 4400 µg/mL (≈ 9640 µM) | solubility ([3]; Captex 300, EP/NF, oil or lipid, Captex 300, EP/NF, read-out: Solubility by HPLC): 64 µg/mL (≈ 140 µM) | solubility ([3]; Captex 355, EP/NF, oil or lipid, Captex 355, EP/NF, read-out: Solubility by HPLC): 49 µg/mL (≈ 107 µM) | solubility ([3]; Castor Oil, oil or lipid, Castor Oil, read-out: Solubility by HPLC): 990 µg/mL (≈ 2170 µM) | solubility ([3]; Corn Oil, oil or lipid, Corn Oil, read-out: Solubility by HPLC): 31 µg/mL (≈ 67.9 µM) | solubility ([3]; FaSSIF, pH 4.96, fassif, FaSSIF, Final pH: 4.96, read-out: Solubility by HPLC): 39 µg/mL (≈ 85.4 µM) | solubility ([3]; FaSSIF, pH 4.99, fassif, FaSSIF, Final pH: 4.99, read-out: Solubility by HPLC): 47 µg/mL (≈ 103 µM) | solubility ([3]; FaSSIF, pH 6.77, fassif, FaSSIF, Final pH: 6.77, read-out: Solubility by HPLC): 5.1 µg/mL (≈ 11.2 µM) | solubility ([3]; FaSSIF, pH 6.78, fassif, FaSSIF, Final pH: 6.78, read-out: Solubility by HPLC): 3.2 µg/mL (≈ 7.01 µM) | solubility ([3]; Gelucire 44/14 1 mg/mL (500× cmc), aqueous with cosolvent or surfactant or cyclodextrin, Gelucire 44/14, 1 mg/mL (500× cmc), read-out: Solubility by HPLC): 0.8 µg/mL (≈ 1.75 µM) | solubility ([3]; Kolliphor HS-15, 35 °C, organic solvent or mixture, Kolliphor HS-15, Stirred at 35° C., read-out: Solubility by HPLC): 2800 µg/mL (≈ 6130 µM) | solubility ([3]; Kolliphor P188 0.4 mM (3.2× cmc), aqueous with cosolvent or surfactant or cyclodextrin, Kolliphor P188, 0.4 mM (3.2× cmc), read-out: Solubility by HPLC): 1.6 µg/mL (≈ 3.51 µM) | solubility ([3]; Kolliphor P188 4 mM (32× cmc), aqueous with cosolvent or surfactant or cyclodextrin, Kolliphor P188, 4 mM (32× cmc), read-out: Solubility by HPLC): 3.1 µg/mL (≈ 6.79 µM) | solubility ([3]; Labrafil M1944CS, oil or lipid, Labrafil M1944CS, read-out: Solubility by HPLC): 280 µg/mL (≈ 613 µM) | solubility ([3]; Labrasol, oil or lipid, Labrasol, read-out: Solubility by HPLC): 1700 µg/mL (≈ 3720 µM) | solubility ([3]; Lecithin 61 mg/mL (100× cmc), aqueous with cosolvent or surfactant or cyclodextrin, Lecithin, 61 mg/mL (100× cmc), read-out: Solubility by HPLC): 53 µg/mL (≈ 116 µM) | solubility ([3]; Miglyol 810, oil or lipid, Miglyol 810, read-out: Solubility by HPLC): 53 µg/mL (≈ 116 µM) | solubility ([3]; Miglyol 812, oil or lipid, Miglyol 812, read-out: Solubility by HPLC): 52 µg/mL (≈ 114 µM) | solubility ([3]; Oleic Acid, oil or lipid, Oleic Acid, read-out: Solubility by HPLC): 390 µg/mL (≈ 854 µM) | solubility ([3]; PEG 400, organic solvent or mixture, PEG 400, read-out: Solubility by HPLC): 2000 µg/mL (≈ 4380 µM) | solubility ([3]; Peceol, oil or lipid, Peceol, read-out: Solubility by HPLC): 1300 µg/mL (≈ 2850 µM) | solubility ([3]; Plurol Oleique CC 497, oil or lipid, Plurol Oleique CC 497, read-out: Solubility by HPLC): 1200 µg/mL (≈ 2630 µM) | solubility ([3]; Sodium Lauryl Sulfate 8.2 mM (cmc), aqueous with cosolvent or surfactant or cyclodextrin, Sodium Lauryl Sulfate, 8.2 mM (cmc), read-out: Solubility by HPLC): 150 µg/mL (≈ 329 µM) | solubility ([3]; Sodium Lauryl Sulfate 41 mM (5× cmc), aqueous with cosolvent or surfactant or cyclodextrin, Sodium Lauryl Sulfate, 41 mM (5× cmc), read-out: Solubility by HPLC): 1600 µg/mL (≈ 3510 µM) | solubility ([3]; Sodium Lauryl Sulfate 82 mM (10× cmc), aqueous with cosolvent or surfactant or cyclodextrin, Sodium Lauryl Sulfate, 82 mM (10× cmc), read-out: Solubility by HPLC): 2400 µg/mL (≈ 5260 µM) | Solubility by HPLC ([3]; Sodium Lauryl Sulfate, 0.82M (100× cmc)): 17000 µg/mL and 19000 µg/mL | solubility ([3]; Soybean Oil, oil or lipid, Soybean Oil, read-out: Solubility by HPLC): 30 µg/mL (≈ 65.7 µM) | solubility ([3]; Transcutol HP, organic solvent or mixture, Transcutol HP, read-out: Solubility by HPLC): 4700 µg/mL (≈ 10300 µM) | solubility ([3]; Triacetic, organic solvent or mixture, Triacetic, read-out: Solubility by HPLC): 430 µg/mL (≈ 942 µM) | solubility ([3]; Tween 80, 1.2 mM (100× CMC), aqueous with cosolvent or surfactant or cyclodextrin, Tween 80, 1.2 mM (100× cmc), read-out: Solubility by HPLC): 560 µg/mL (≈ 1230 µM) | solubility ([3]; Vitamin E TPGS 0.2 wt % (10× cmc), aqueous with cosolvent or surfactant or cyclodextrin, Vitamin E TPGS, 0.2 wt % (10× cmc), read-out: Solubility by HPLC): 20 µg/mL (≈ 43.8 µM) | solubility ([3]; Vitamin E TPGS 2 wt % (100× cmc), aqueous with cosolvent or surfactant or cyclodextrin, Vitamin E TPGS, 2 wt % (100× cmc), read-out: Solubility by HPLC): 40 µg/mL (≈ 87.6 µM) | solubility ([3]; Water, pH 8.99, water, Water, Final pH: 8.99, read-out: Solubility by HPLC): 1 µg/mL (≈ 2.19 µM) | solubility ([3]; ethanol, organic solvent or mixture, Ethanol, read-out: Solubility by HPLC): 3100 µg/mL (≈ 6790 µM) | solubility ([3]; organic solvent or mixture, EtOH, PEG 400, Propylene glycol, Capmul MCM NF, Kolliphor EL, Capmul MCM EP, Plurol Oleique CC 497, Peceol, Labrasol, SLS at 5× and 10×CMC, Transcutol HP, read-out: solubility of the API): 1000 to 5000 µg/mL (≈ 2190 to 11000 µM) | solubility ([3]; pH 1.0 buffer, pH 1, simulated gastric fluid, pH 1.0 buffer, Final pH: 0.89, read-out: Solubility by HPLC): 1.2 µg/mL (≈ 2.63 µM) | solubility ([3]; pH 4.5 buffer, pH 4.5, aqueous buffer, pH 4.5 buffer, Final pH: 4.80, read-out: Solubility by HPLC): 1.1 µg/mL (≈ 2.41 µM) | solubility ([3]; pH 6.8 buffer, pH 6.8, aqueous buffer, pH 6.8 buffer, Final pH: 6.50, read-out: Solubility by HPLC): 0.8 µg/mL (≈ 1.75 µM) | solubility ([3]; propylene glycol, organic solvent or mixture, Propylene Glycol, read-out: Solubility by HPLC): 2600 µg/mL (≈ 5700 µM) | solubility ([3]; sodium lauryl sulfate solution, 0.82 M (100× CMC), aqueous with cosolvent or surfactant or cyclodextrin, Sodium Lauryl Sulfate, 0.82M (100× cmc), read-out: Solubility by HPLC): > 10000 µg/mL | solubility ([3]; sulfobutylether β-cyclodextrin, 40 wt %, aqueous with cosolvent or surfactant or cyclodextrin, Sulfobutylether β-CD, 40 wt %, read-out: Solubility by HPLC): 750 µg/mL (≈ 1640 µM) | solubility ([4]; 80 °C, oil or lipid, thermodynamic from solid): 16000 µg/mL (≈ 35100 µM) | saturated solubility ([4]; listed as API): 20000 µg/mL | Total Drug AUC FaSSIF ([5]; 0.5 mg/mL Compound 1 from DMSO stock into FaSSIF, one hour): 13100 min*μgA/mL | Total Drug C60 ([5]; FaSSIF, 60 min): 91.3 μgA/mL | solubility ([6]; 2-propanol, organic solvent or mixture): 4000 µg/mL (≈ 8760 µM) | solubility ([6]; acetone, organic solvent or mixture): 2000 µg/mL (≈ 4380 µM) | solubility ([6]; acetonitrile, organic solvent or mixture): < 1000 µg/mL | solubility ([6]; dichloromethane, organic solvent or mixture): 2000 µg/mL (≈ 4380 µM) | solubility ([6]; dimethylformamide, organic solvent or mixture): 15000 µg/mL (≈ 32900 µM) | solubility ([6]; ethanol (absolute), organic solvent or mixture): 6000 µg/mL (≈ 13100 µM) | solubility ([6]; ethyl acetate, organic solvent or mixture): 1000 µg/mL (≈ 2190 µM) | solubility ([6]; ethyl ether, organic solvent or mixture): < 1000 µg/mL | solubility ([6]; methanol, organic solvent or mixture): 6000 µg/mL (≈ 13100 µM) | solubility ([6]; tetrahydrofuran, organic solvent or mixture): 6000 µg/mL (≈ 13100 µM) | solubility ([6]; water): < 1000 µg/mL | temperature at which continuous weight loss due to decomposition started (TGA) [7]: 260 °C | no degradation up to (DSC) [8]: 275 °C
Compound: CC(=O)N1CCc2c(C(=O)N3CCC(c4ccc(F)c(F)c4C(F)(F)F)CC3)n[nH]c2C1 [Compound 1, 1-(3-(4-(3,4-difluoro-2-(trifluoromethyl)phenyl)piperidine-1-carbonyl)-1,4,5,7-tetrahydro-6H-pyrazolo[3,4-c]pyridin-6-yl)ethan-1-one]
